# In patent EP2487185A1, “Hexapeptide with improved activity in the repair of cellular DNA of dermal cells” (Clinuvel Pharmaceuticals Limited, priority 2011, dated 2012):
# Non-standard residues stand in square brackets, D forms with d. Nle = CCCC[C@H](N)C(=O)O
# Assays:
# Format in all cases: cell-based, human
# melanocytes strain 105c = experiment: cAMP levels, radioimmunoassay; conditions: 45 min, 0.1 mM IBMX
# Description: Dose-response experiments were carried out on three melanocytic strains, namely strains 1513c, 1505b and 105c melanocytes were treated with 1 pM-10 nM CUV9900 or NDP-MSH, or with 0.1-10 nM MSH for 45 minutes in the presence of 0.1 mM isobutyl methylxanthine (IBMX). The results obtained from strain 1513c are shown in Fig. 3, the results obtained from strain 1505b are shown in Fig. 5a and the results obtained from strain 105c are shown in Fig. 5b. The strains 1505b and 1513c were obtained from the same human adult while the strain 105c was obtained from another human adult.
# Cyclic AMP is the second messenger for the melanocortin-1 receptor, and assessment is usually performed indicating cellular activity reflective of melanogenesis. Cyclic AMP levels were determined using ^125I-labeled radioimmunoassay kit (Perkin Elmer, Waltham, MA), in human melanocytes that were treated with 0 (control), 0.1-10.0 nM α-MSH, or 0.001-10 nM NDP-MSH or 0.001-10.0 nM CUV 9900 for 45 min. in the presence of 0.1 mM IBMX, a phosphodiesterase inhibitor to prevent cAMP degradation. Triplicate wells were included in each group, and duplicate samples from each well were assayed for cAMP levels. Each data point is the mean percent of control of 6 determinations/group ±S.E.
# [1] = test system: melanocytic strain 1505b and melanocytic strain 10.3c; experiment: UV-induced generation of hydrogen peroxide, luminol luminescence; conditions: 1 nM; for UV-induced hydrogen peroxide generation: 105 mJ/cm^2 UV, 0, 30 and 45 minutes after UV irradiation
# Source text: (§1) With reference to Figs. 10 and 11, melanocytes were irradiated with a bank of FS 20 lamps, with 75% emission in the UVB, and 25% emission in the UVA spectra, with peak emission at 313 nm wavelength. Any emission of UVC rays from the UV source (FS 20 lamps) was blocked by Kodacel filter. Prior to irradiation, the culture medium was replaced by PBS, which was removed after UV exposure, and fresh medium added.
# (§2) Melanocytes were irradiated with 105 mJ/cm^2 UV, and treated immediately while in PBS with 0, 1 nM α-MSH or 1 nM CUV9900. Generation of hydrogen peroxide, representative of reactive oxygen species (ROS), was determined by measuring the luminescence of luminol at 0, 30, and 45 min after UV exposure. Triplicate dishes were included in each group, and duplicate samples from each dish were used for measurement of hydrogen peroxide at each time point. Each data point represents the mean of 6 determinations/group ±S.E.
# [2] = test system: melanocytic strains 1563c and 102b; experiment: Ultrastructural visualization of DOPA-stained HM, electron microscopy; conditions: 0.1 nM or 1 nM CUV9900 or 1 nM MSH
# Description: (§3) With reference to Figs. 14 and 15, two melanocytic strains, a lightly pigmented strain 1563c of Fig. 14 and strain 102b of Fig. 15 were plated in 4-well chamber slides and treated […] with either 0.1 nM or 1 nM CUV9900 or 1 nM MSH for a total of 6 days. Cells were processed for electron microscopy in the presence or absence of histochemical reaction with DOPA. Microtome sections were analyzed in a JEOL JEM-1230 transmission electron microscope and photomicrographs (15,000 X) of the perinuclear area and dendrites were taken for each experimental group.
# melanocyte strain 1513c = experiment: Tyrosinase activity as a measure of stability / residual effect; conditions: strain 1513c; 1 nM peptide incubated 5-7 hours at 37 degrees Celsius
# Description: To determine the residual effect of CUV9900, as compared to NDP-MSH and α-MSH, on tyrosinase activity, melanocytes were treated with either CUV9900 or NDP-MSH at the concentrations previously described for a total of 3 days. Tyrosinase activity was measured at the end of the 3 days of treatment, and 2 and 4 days after maintenance of the melanocytes in the complete absence of any treatment. With continued reference to Figs. 7, 8 and 9, to determine the stability of CUV9900 versus that of NDP-MSH and α-MSH, melanocytes were treated with 1 nM of each peptide, namely with CUV9900, NDP-MSH and α-MSH, for a total of 6 days, or with 1 nM peptides that were incubated for 5 hours at 37 °C prior to addition to the cultures, every other day, for a total of 6 days. Tyrosinase activity was measured at the end of treatment. In the experiments, cell number represents the mean percent of control of 3 determinations/ group ±SE, and tyrosinase activity data represent the mean percent of control of 6 determinations ±S.E. It should be noted that for the sake of reproducibility the experiment of strain 1513c of Fig. 9 was performed once more 6 months later than the experiment of Fig. 7. […] Melanocytes were treated for 3 days with the designated concentrations of CUV9900, NDP-MSH, or MSH, then maintained in absence of peptides for 4 days. Tyrosinase activity was determined 3 days after treatment. Comparison of stability of CUV9900, NDP-MSH and MSH was compared in 1513c, as shown in Fig. 7; the strain was treated for 6 days with 1 nM CUV9900, NDP-MSH or MSH with fresh medium and peptide replenished every 2 days. Melanocytes were treated according to the same experiment protocol but each peptide was incubated for 5-7 hours at 37 degrees Celsius. […] The assessment of tyrosinase was statistically different from control, as determined by ANOVA (p=<0.05).
# melanocytic strain 10.3c = experiment: UV-induced generation of hydrogen peroxide (luminol luminescence); conditions: 1 nM, 105 mJ/cm^2 UV, 0, 30 and 45 minutes after UV
# Source text: as §1, §2
# melanocytic strain 1505b = experiment: as above; conditions: strain 1505b; 1 nM; 105 mJ/cm^2 UV; 0, 30 and 45 minutes after UV
# Source text: as §1, §2
# [3] = test system: lightly pigmented strain 1563c and strain 102b; experiment: Ultrastructural visualization of DOPA-stained HM (electron microscopy); conditions: 0.1 nM or 1 nM CUV9900 or 1 nM MSH; strains 1563c and 102b
# Description: as §3
Substance,elevation of cAMP in comparison to NDP (melanocytes strain 105c; 0.01 nM and 0.1 nM),"cAMP compared with MSH (melanocytes strain 105c; 0.1 nM, 1 nM and 10 nM)",UV-induced hydrogen peroxide generation [1],hydrogen peroxide generation in comparison with both NDP-MSH and MSH ([1]; at 45 minutes after irradiation),melanosomes in the perinuclear area and dendrites [2],effect of incubation of the peptide on stimulation of tyrosinase activity (melanocyte strain 1513c),UV-induced hydrogen peroxide generation (melanocytic strain 10.3c),UV-induced hydrogen peroxide generation (melanocytic strain 1505b),"melanosomes, electron microscopy [3]"
Ac-Nle-Glu His-D-Phe-Arg-Trp-NH2 (SEQ ID NO: 1) (Ac-[Nle]EH[dF]RW-NH2; SMILES CCCC[C@H](NC(C)=O)C(=O)N[C@@H](CCC(=O)O)C(=O)N[C@@H](Cc1c[nH]cn1)C(=O)N[C@H](Cc1ccccc1)C(=O)N[C@@H](CCCNC(=N)N)C(=O)N[C@@H](Cc1c[nH]c2ccccc12)C(N)=O) [CUV9900],less elevation of cAMP,significantly higher,significant reduction,lower hydrogen peroxide generation,increased mature (stage IV) melanosomes,,,,
"Ac-Ser-Tyr-Ser-Met-Glu-His-Phe-Arg-Trp-Gly-Lys-Pro-Val-NH2 (SEQ ID NO: 3) [alpha-MSH, reference compound]",,,significant reduction,,increased mature (stage IV) melanosomes,,,,
"Ac-Ser-Tyr-Ser-Met-Glu-His-Phe-Arg-Trp-Gly-Lys-Pro-Val-NH2 [alpha-MSH, reference compound]",,,,,,totally abolished its effect on tyrosinase activity,significant reduction of UV-induced hydrogen peroxide generation,significant reduction of UV-induced hydrogen peroxide generation,increased mature (stage IV) melanosomes in the perinuclear area and more so in dendrites
